Values of other authors as cited in US11504319B2, “Process of coloring keratinous material comprising the use of an organosilicon compound, an effect pigment, a further coloring compound and a film-forming polymer III” (Henkel AG & Co. KGaA, priority 2019, dated 2022).

Conditions: 25° C.

solubility in water (in words)	Compound	solubility in water
	O=S(=O)([O-])c1ccc(N=Nc2c(O)ccc3ccccc23)cc1.[Na+] [Acid Orange 7, sodium salt of 4-[(2-hydroxy-1-naphthyl)azo]benzene sulphonate]	more than 7 g/L
highly soluble	O=C([O-])C1=NN(c2ccc(S(=O)(=O)[O-])cc2)C(=O)C1N=Nc1ccc(S(=O)(=O)[O-])cc1.[Na+].[Na+].[Na+] (stereo not shown) [Acid Yellow 23, trisodium salt of 4,5-dihydro-5-oxo-1-(4-sulfophenyl)-4-((4-sulfophenyl)azo)-1H-pyrazole-3-carboxylic acid]	
	Nc1cc(S(=O)(=O)[O-])cc2cc(S(=O)(=O)[O-])c(N=Nc3ccccc3)c(O)c12.[Na+].[Na+] [Acid Red 33, disodium salt of 5-amino-4-hydroxy-3-(phenylazo)-naphthalene-2,7-disulphonate]	2500 µg/mL
	O=C([O-])c1c(Cl)c(Cl)c(Cl)c(Cl)c1-c1c2c(Br)cc(=O)c(Br)c-2oc2c(Br)c(O)cc(Br)c12.O=C([O-])c1c(Cl)c(Cl)c(Cl)c(Cl)c1-c1c2c(Br)cc(=O)c(Br)c-2oc2c(Br)c(O)cc(Br)c12.[Na+].[Na+] [Acid Red 92, disodium salt of 3,4,5,6-tetrachloro-2-(1,4,5,8-tetrabromo-6-hydroxy-3-oxoxanthen-9-yl)benzoic acid]	greater than 10 g/L
